Assay results taken from US4263301A, “β-Phenyl-β-hydroxyethylaminoalkyltheophyllines as inhibitors of biosynthesis of triglycerides” (Shell Oil Company, priority 1980, dated 1981).

Tested on: synthesis of triglycerides (enzyme from pig adipose tissue)
Assay: Inhibition of triglyceride synthesis by enzyme preparation (homogenate supernatant) from pig adipose tissue, 14C-glycerol-3-phosphate incorporation
Format: biochemical
Conditions: test compound 1000 micrograms per milliliter, 5% DMSO, incubated eight minutes at 37° C; compared to controls; average of two animals, three replicates each
Protocol: The manner in which they cause this effect has not been established. Their effectiveness for this purpose has been ascertained by the following procedure.
An enzyme was prepared by homogenizing one gram of slices from pig adipose tissue, each slice being approximately 0.3 mm thick, in one-milliliter portions of a liquid medium (Liquid A). The homogenate then was centrifuged (10,000 g×15 minutes), and the supernatant phase (the enzyme) was poured through cheesecloth to remove fat that has risen to the top of the centrifuge tubes.
Liquid A had the following composition (in water):
0.15 M potassium chloride, 1 mM ethylenediaminetetracetic acid, 10 mM Hepes (N-2-hydroxyethylpiperazine-N'-2-ethanesulfonic acid), 1 mM DTT (dithiothreitol), pH=7.0.
A solution of the test compound (Liquid B) was prepared: 10 milligrams of test compound plus 0.5 milliliter dimethylsulfoxide (DMSO) plus 1.83 milliliters of glass-distilled water.
A premix (Liquid C) was freshly prepared before each test, from the following components. […]
0.25 milliliter of enzyme then was added. […] Ten milliliters of a 2:1 (v/v) mixture of toluene and Triton X-100 containing 0.27% New England Nuclear Omnifluor was added, and the radioactivity was determined in a liquid scintillation counter. […]
The percent inhibition by the test compound compared to the controls […] was determined.

Row | SMILES | Percent Inhibition
1 | Cl.Cn1c(=O)c2c(ncn2CCCNCC(O)c2cc(C(C)(C)C)c(O)c(C(C)(C)C)c2)n(C)c1=O (centres unmarked) [7-(3-(2-(3,5-bis-(1,1-dimethylethyl)-4-hydroxyphenyl)-2-hydroxyethylamino)propyl)-3,7-dihydro-1,3-dimethyl-1H-purine-2,6-dione, hydrochloride] | 93
2 | Cl.Cn1c(=O)c2c(ncn2CCNCC(O)c2cc(C(C)(C)C)c(O)c(C(C)(C)C)c2)n(C)c1=O (centres unmarked) [7-(2-(2-(3,5-bis-(1,1-dimethylethyl)-4-hydroxyphenyl)-2-hydroxyethylamino)ethyl)-3,7-dihydro-1,3-dimethyl-1H-purine-2,6-dione, hydrochloride] | 95
